Calls of active or inactive are those of the source. No rule for the calls is given here.
Each molecule was assayed against Influenza A virus M2 proton channel (A/TW/4845/1999 H1N1) (assay: NMR binding screen, influenza A virus M2 proton channel, Kd (AID 1549)). Details: M2 protein.

Compound | Kd
Cc1ccc(C(=O)Nc2nnc(-c3ccncc3)s2)o1 | > 4 mM (inactive)
CN=C(C)c1c(O)n(C)c(=S)n(C)c1=O | > 4 mM (inactive)
CN1CCC(O)N1C(=O)c1ccccc1O (centres undefined) | > 4 mM (inactive)
O=C(NCc1ccccc1)c1ccc[n+]([O-])c1 | > 4 mM (inactive)
O=C(Cc1c(F)cccc1Cl)Nc1ccon1 | > 4 mM (inactive)
O=C1CSC(=Nc2cccc(C(F)(F)F)c2)N1 | > 4 mM (inactive)
COc1cc(S(=O)(=O)N(C)C)ccc1F | > 4 mM (inactive)
CN1CCC(NC(=O)c2c(F)cccc2Cl)CC1 | > 4 mM (inactive)
COc1ccccc1-c1noc(-c2ccncc2)n1 | > 4 mM (inactive)
CCN1C(=O)c2c(C)nc3ccccc3c2C1=O | > 4 mM (inactive)
COc1ccccc1-c1noc(-c2ccco2)n1 | > 4 mM (inactive)
CP(C)(=O)c1cccc(C(=O)O)c1 | > 4 mM (inactive)
Cc1ccc(NC(=O)C2CCN(S(C)(=O)=O)CC2)cc1 | > 4 mM (inactive)
O=C(NCc1ccco1)c1ccc(Br)s1 | > 4 mM (inactive)
COc1cc([C@@H]2c3cc4c(cc3[C@H](O)[C@H]3COC(=O)[C@@H]23)OCO4)cc(OC)c1OC | > 4 mM (inactive)
Oc1ccccc1-c1nnco1 | > 4 mM (inactive)
O=[n+]1cc(C2=CC=CCC2)n([O-])c2c1CCCCC2 | > 4 mM (inactive)
CCOC(=O)c1c(C)nc2c(C#N)cnn2c1C | > 4 mM (inactive)
O=C1C=C(Nc2ccc(O)cc2)c2ccccc2C1=O | > 4 mM (inactive)
CC(=O)Nc1ccn(Cc2c(F)cccc2Cl)n1 | > 4 mM (inactive)

Compound | Kd
COc1cnn(Cc2ccccc2)c(=O)c1Cl | > 4 mM (inactive)
NC(=O)CCn1ncc2ccccc21 | > 4 mM (inactive)
NC(=O)C1(S(=O)(=O)c2ccccc2)CC1 | > 4 mM (inactive)
CSc1nc2[nH]ncc2c(=O)[nH]1 | > 4 mM (inactive)
COC(=O)CC1NC2CCCCC2NC1=O (centres undefined) | > 4 mM (inactive)
CC(NC(=O)c1ccco1)c1ccc2c(c1)OCCO2 (centres undefined) | > 4 mM (inactive)
O=c1[nH]c(=S)[nH]c2c1CCC2 | > 4 mM (inactive)
Cc1occc1C(=O)Nc1ccc2c(c1)CCC2 | > 4 mM (inactive)
N=C1/C(=C\c2ccccc2)C(=O)N=C2SC=NN12 | > 4 mM (inactive)
COc1ccccc1NC(=O)C1CCC(=O)N1 (centres undefined) | > 4 mM (inactive)
NC(=O)CSc1nnc2ccc3ccccc3n12 | > 4 mM (inactive)
Cc1nc2ccccc2c2c1C(=O)N(N)C2=O | > 4 mM (inactive)
Cc1ccc2c(C)c(C(=O)Nc3nnc(C)s3)oc2c1 | > 4 mM (inactive)
O=C(Cc1c(F)cccc1Cl)Nc1cccnc1 | > 4 mM (inactive)
COc1ccc2c(c1OC)C(=O)N(c1ncn[nH]1)C2 | > 4 mM (inactive)
O=C1CNc2cc(C(=O)O)ccc2N1 | > 4 mM (inactive)
Cc1cc(C(=O)Nn2cnnc2)cs1 | > 4 mM (inactive)
O=C(O)c1ccnc2ccccc12 | > 4 mM (inactive)
CN(C)c1n[nH]c(=O)[nH]c1=O | > 4 mM (inactive)
Cn1c(NCc2ccccc2O)nc2ccccc21 | > 4 mM (inactive)

Compound | Kd
C[C@@H]1CC[C@@]2(OC1)OC1CC3C4CC=C5C[C@@H](O)CC[C@]5(C)C4CC[C@]3(C)C1[C@@H]2C (some centres undefined) | > 4 mM (inactive)
Oc1ccccc1N1CCCC1 | > 4 mM (inactive)
O=C1C=CC(=O)N1c1ccc(N2CCOCC2)cc1 | > 4 mM (inactive)
O=C(Nc1ccon1)c1ccccc1Cl | > 4 mM (inactive)
CCN1CCC(=NO)CC1 | > 4 mM (inactive)
CC(C)NC(=S)NCc1cnn(C)c1 | > 4 mM (inactive)
CCOC(=O)C1CCN(Cc2ccccc2)CC1=O (centres undefined) | > 4 mM (inactive)
O=C(Nc1cccc2cccnc12)c1cccnc1 | > 4 mM (inactive)
NCc1ccccc1N1CCCCC1 | > 4 mM (inactive)
O=C(NC(=S)NCc1cccnc1)c1ccco1 | > 4 mM (inactive)
O=C(CSc1ncn[nH]1)c1ccc2c(c1)OCCO2 | > 4 mM (inactive)
CC(C)=CCc1c2c(c(O)c3c(=O)c(O)c(-c4ccccc4)oc13)C=CC(C)(C)O2 | > 4 mM (inactive)
O=C1CC(=O)N2N=C(c3ccccc3)SC2=N1 | > 4 mM (inactive)
COc1ccc2cnn(-c3ccccc3)c(=O)c2c1OC | > 4 mM (inactive)
CSc1nc(=O)[nH]c2c1CCC2 | > 4 mM (inactive)
Cc1cc(=O)c2c(O)cc(O)c(C)c2o1 | > 4 mM (inactive)
O=C1CCC(C(=O)NCc2ccc(Cl)cc2)N1 (centres undefined) | > 4 mM (inactive)
Nc1nc(-c2cccnc2)nn1C(=O)Cc1ccccc1 | > 4 mM (inactive)
O=C1CCCC2C3CC(CN12)[C@@H]1CCCCN1C3 (some centres undefined) | > 4 mM (inactive)

From PubChem BioAssay AID1549 (Sanford-Burnham Center for Chemical Genomics, 2009)
